Results on eleven molecules are retold here after ChEMBL document CHEMBL1201862, “PubChem BioAssay data set” (2004).

Some test systems named below: TK-10; HOP-92; SNB-75; UACC-62; BT-549; NCI-H460; HCC 2998; NCI-H522; SK-OV-3; PC-3; HOP-62; CAKI-1; OVCAR-4; Malme-3M; SK-MEL-2; LOX IMVI; SF-268; HT-29; UACC-257; RPMI-8226.
Experiment in all cases: DTP human tumour cell line panel, 48 h

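How tested: cells in 96-well plates exposed to compound for 48 hours at five concentrations. GI50 marks 50% less growth.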 Active and inactive are the calls of the source. Rule as the data show it: active = GI50 up to about 1.1 µM and inactive = higher.

Turning to `Cc1ccc2nc(CN(CCO)CCO)cc(=O)n2c1`, the GI50 in the experiment on TK-10, in the experiment with HOP-92, in the experiment with SNB-75, in the experiment on UACC-62, in the experiment on BT-549 and with NCI-H460 was > 100 µM (inactive) throughout. The GI50 with HCC 2998, in the experiment on NCI-H522, in the experiment on SK-OV-3, with PC-3, in the experiment on HOP-62 and in the experiment with CAKI-1 was > 100 µM (inactive) each time. The GI50 in the experiment with OVCAR-4, in the experiment on Malme-3M, with SK-MEL-2, with LOX IMVI, in the experiment with SF-268 and in the experiment with HT-29 was > 100 µM (inactive) each time. For the same molecule, the GI50 with UACC-257 was > 100 µM (inactive).

On to `Cc1cccc2c1nc1n2C(=O)c2ccccc2-1`, for which the GI50 with TK-10, with HOP-92, with SNB-75, in the experiment with UACC-62, in the experiment on BT-549 and with NCI-H460 was > 100 µM (inactive) throughout. Moreover, the GI50 in the experiment with HCC 2998, in the experiment with NCI-H522, in the experiment on SK-OV-3, in the experiment on PC-3, in the experiment on RPMI-8226 and with CAKI-1 was > 100 µM (inactive) in each case. For the same molecule, the GI50 in the experiment on OVCAR-4, in the experiment on Malme-3M, in the experiment on SK-MEL-2, in the experiment on SF-268, in the experiment on HT-29 and in the experiment with UACC-257 was > 100 µM (inactive) in each case.

Regarding `COC(=O)[C@](NC(=O)OCc1ccccc1)([C@@H](C)Sc1ccc(C)cc1)C(F)(F)F`, the GI50 in the experiment on UACC-62 was 39.2 µM (inactive); in the experiment with BT-549, 34.9 µM (inactive); in the experiment with NCI-H460, 34.5 µM (inactive); with HCC 2998, > 100 µM (inactive); with NCI-H522, 25.1 µM (inactive); with SK-OV-3, > 100 µM (inactive). The GI50 in the experiment on PC-3 is 43 µM (inactive); with RPMI-8226, 29.2 µM (inactive); in the experiment on HOP-62 it was > 100 µM (inactive); with CAKI-1, 57.5 µM (inactive); with OVCAR-4, 32.3 µM (inactive); in the experiment on Malme-3M it was 55.7 µM (inactive). In addition, the GI50 in the experiment with SK-MEL-2 was > 100 µM (inactive); with LOX IMVI it was 39 µM (inactive); in the experiment on SF-268 it was 38.4 µM (inactive); in the experiment on HT-29, 34.7 µM (inactive); in the experiment with UACC-257, 35 µM (inactive).

For the molecule `CCC/C(=N\NC(=S)N1CC2CCC(CC2)C1)c1ccccn1`, the GI50 in the experiment with TK-10 is 0.977 µM (active); in the experiment with HOP-92 it was 0.019 µM (active); in the experiment on SNB-75 it was 0.185 µM (active); in the experiment with UACC-62, 0.0479 µM (active); with BT-549, 0.3 µM (active); with NCI-H460 it was 0.22 µM (active). Besides, the GI50 was 0.344 µM (active) with HCC 2998; 0.282 µM (active) with NCI-H522; 0.927 µM (active) in the experiment on SK-OV-3; 0.0906 µM (active) in the experiment with PC-3; 0.00822 µM (active) with RPMI-8226; 0.713 µM (active) in the experiment on HOP-62. Moreover, the GI50 in the experiment on CAKI-1 is 1.21 µM (inactive); with OVCAR-4, 0.395 µM (active); in the experiment on SK-MEL-2 it was 0.0813 µM (active); in the experiment on LOX IMVI, 0.542 µM (active); in the experiment with SF-268, 0.641 µM (active); in the experiment with HT-29, 0.0432 µM (active). Also, in the experiment with UACC-257, the GI50 is 0.0252 µM (active).

Consider `O=c1cccc(C2CC(CO)C3CCCCN3C2)[nH]1` (stereo not given), for which the GI50 was > 100 µM (inactive) in the experiment on TK-10; > 100 µM (inactive) in the experiment on HOP-92; 86.9 µM (inactive) in the experiment with SNB-75; > 100 µM (inactive) with UACC-62; > 100 µM (inactive) in the experiment on BT-549; > 100 µM (inactive) in the experiment with NCI-H460. Moreover, the GI50 with HCC 2998, in the experiment on NCI-H522, with SK-OV-3, in the experiment on PC-3, in the experiment on RPMI-8226 and with CAKI-1 was > 100 µM (inactive) each time. The GI50 with OVCAR-4, with SK-MEL-2, with LOX IMVI, in the experiment on SF-268, in the experiment with HT-29 and in the experiment with UACC-257 was > 100 µM (inactive) each time.

With `Oc1ccc(O)c(Sc2nnc(CCCCCCCCc3nnc(Sc4cc(O)ccc4O)o3)o2)c1`, the GI50 in the experiment with TK-10 is > 100 µM (inactive); in the experiment with HOP-92 it was 24 µM (inactive); in the experiment with SNB-75 it was > 100 µM (inactive); in the experiment with UACC-62, 47.5 µM (inactive); with BT-549, 74.8 µM (inactive); with NCI-H460, 72.9 µM (inactive). The GI50 in the experiment with HCC 2998 is 75.5 µM (inactive); in the experiment with NCI-H522, 23.8 µM (inactive); in the experiment with SK-OV-3 it was > 100 µM (inactive); with PC-3, > 100 µM (inactive); in the experiment with RPMI-8226, 23.1 µM (inactive); in the experiment with HOP-62 it was > 100 µM (inactive). For the same molecule, the GI50 with CAKI-1 is 28.8 µM (inactive); in the experiment with OVCAR-4, 33.1 µM (inactive); in the experiment on Malme-3M, 57.3 µM (inactive); in the experiment with SK-MEL-2, > 100 µM (inactive); in the experiment on SF-268, 73.6 µM (inactive); with HT-29, > 100 µM (inactive). For the same molecule, the GI50 in the experiment with UACC-257 was > 100 µM (inactive).

Consider `Oc1cccc(-c2cn3cc(Cl)ccc3n2)c1`, for which the GI50 in the experiment on TK-10 is 35.4 µM (inactive); in the experiment with HOP-92, 91.8 µM (inactive); with UACC-62 it was 35.1 µM (inactive); in the experiment on BT-549 it was 51.1 µM (inactive); with NCI-H460, 34 µM (inactive); in the experiment with HCC 2998, 38.4 µM (inactive). For the same molecule, the GI50 in the experiment on NCI-H522 is 15.9 µM (inactive); with SK-OV-3, 96.6 µM (inactive); with PC-3 it was 29.2 µM (inactive); in the experiment with HOP-62, > 100 µM (inactive); in the experiment with CAKI-1, 70 µM (inactive); with OVCAR-4, 32.1 µM (inactive). For the same molecule, the GI50 in the experiment with Malme-3M was 51.6 µM (inactive); with SK-MEL-2, 38.8 µM (inactive); in the experiment on LOX IMVI, 45.7 µM (inactive); with SF-268, 55.1 µM (inactive); in the experiment with HT-29, 43.4 µM (inactive); in the experiment on UACC-257, 25.6 µM (inactive).

Consider `NC(=O)OCc1c(-c2ccccc2)nn(-c2ccccc2)c1COC(N)=O`, for which the GI50 in the experiment with TK-10 was > 100 µM (inactive); with HOP-92, > 100 µM (inactive); with SNB-75, 45.7 µM (inactive); in the experiment with UACC-62 it was > 100 µM (inactive); in the experiment with BT-549, > 100 µM (inactive); in the experiment with HCC 2998 it was > 100 µM (inactive). For the same molecule, the GI50 with NCI-H522, with PC-3, in the experiment with RPMI-8226, with CAKI-1, in the experiment on OVCAR-4 and in the experiment with Malme-3M was > 100 µM (inactive) each time. In addition, the GI50 with SK-MEL-2, in the experiment with SF-268, in the experiment on HT-29 and with UACC-257 was > 100 µM (inactive) in each case.

For `CC(C)C(Br)CCC1=CCC(Br)(Br)C1` (stereo not given), the GI50 in the experiment with TK-10 is 17.5 µM (inactive); in the experiment on HOP-92 it was 5.2 µM (inactive); with SNB-75 it was 10.9 µM (inactive); in the experiment on UACC-62 it was 6.58 µM (inactive); in the experiment on BT-549, 20.2 µM (inactive); in the experiment on NCI-H460 it was 16.7 µM (inactive). The GI50 is 14.9 µM (inactive) with HCC 2998; 2.35 µM (inactive) in the experiment with NCI-H522; 13.1 µM (inactive) in the experiment with SK-OV-3; 14.9 µM (inactive) in the experiment on PC-3; 17 µM (inactive) with HOP-62; 17.2 µM (inactive) in the experiment on CAKI-1. Further, the GI50 in the experiment on OVCAR-4 is 9.1 µM (inactive); in the experiment on Malme-3M, 14.6 µM (inactive); in the experiment with SK-MEL-2 it was 5.77 µM (inactive); in the experiment on LOX IMVI, 1.41 µM (inactive); in the experiment on SF-268 it was 16.8 µM (inactive); with HT-29 it was 13.5 µM (inactive). Also, in the experiment on UACC-257, the GI50 was 14.5 µM (inactive).

Take `COc1ccc(/N=C2\C(=N/c3ccc(OC)cc3)N(S(=O)(=O)c3ccccc3)C(=S)N2c2ccccc2)cc1`: the GI50 in the experiment on TK-10, with HOP-92, in the experiment with SNB-75, with UACC-62, in the experiment with BT-549 and with NCI-H460 was > 100 µM (inactive) throughout. Besides, the GI50 was > 100 µM (inactive) in the experiment with HCC 2998; 86.3 µM (inactive) with NCI-H522; > 100 µM (inactive) in the experiment with SK-OV-3; > 100 µM (inactive) in the experiment on PC-3; > 100 µM (inactive) in the experiment with RPMI-8226; > 100 µM (inactive) in the experiment on HOP-62. The GI50 with CAKI-1, in the experiment with Malme-3M, in the experiment on SK-MEL-2, in the experiment on SF-268, in the experiment with HT-29 and in the experiment on UACC-257 was > 100 µM (inactive) each time.

`C=CCC1(OC(C)=O)C2OC(=O)C1(O)OCC2O` (stereo not given): the GI50 was > 70.8 µM (inactive) in the experiment with TK-10; > 39.9 µM (inactive) in the experiment with SNB-75; > 59.3 µM (inactive) in the experiment on UACC-62; > 100 µM (inactive) in the experiment on BT-549; > 100 µM (inactive) in the experiment on NCI-H460; > 100 µM (inactive) in the experiment with HCC 2998. In addition, the GI50 in the experiment with NCI-H522, with SK-OV-3, with PC-3, with RPMI-8226, with HOP-62 and in the experiment on CAKI-1 was > 100 µM (inactive) each time. Moreover, the GI50 in the experiment on OVCAR-4, in the experiment with Malme-3M, in the experiment on SK-MEL-2, in the experiment with LOX IMVI, in the experiment with SF-268 and with HT-29 was > 100 µM (inactive) each time. Also, in the experiment with UACC-257, the GI50 is > 100 µM (inactive).

One may read the GI50 as the concentration that inhibits growth by half.
